Results from US20260103474A1, “NOVEL COMPOUNDS FOR THE DIAGNOSIS OF TDP-43 PROTEINOPATHIES” (AC IMMUNE SA, priority 2022, published 2026).
Where two headings read alike, the source gives them in different places.

Key:
[1] = molecular target: T1, Human brain derived TDP-43 aggregates (Homo sapiens, UniProt Q13148); test: Micro-radiobinding competition assay for binding affinity to TDP-43; conditions: for Ki: 0.24 nM to 2 μM vs tritiated reference ligand at 40 nM; for Human brain derived TDP-43 aggregates Mean % competition at 250 nM: non-radiolabeled compound at 250 nM vs tritiated reference ligand at 40 nM; for Human brain derived TDP-43 aggregates Mean % competition at 250 nM / Human brain derived TDP-43 aggregates Mean % competition at 2 μM: FTD sarkosyl-insoluble brain extracts; for Human brain derived TDP-43 aggregates Mean % competition at 2 μM: non-radiolabeled compound at 2 μM vs tritiated reference ligand at 40 nM
T1 construct: Human FTD sarkosyl-insoluble brain extracts were spotted onto microarray slides
Experimental: (§1) Human brain extracts were prepared as described in Laferriere et al., 2019, Nature Neurosc. A sample of brain tissue (frontal or temporal cortex) was homogenized at 1:4 (w/v) ratio in the homogenization-solubilization (HS) buffer at 4° C. using tissue homogenizer (Precellys) with CKmix homogenization tubes. The following sequence was used for homogenization: 3 cycles of 30 seconds at 5000 rpm (with 15 seconds pause between each cycle). Homogenized samples were aliquoted and stored at −80° C. in 1.5 mL low protein binding tubes.
(§2) Brain homogenates were thawed on ice and resuspended in HS buffer to obtain a final concentration of 2% sarkosyl, 1 unit/μL Benzonase and 1 mM MgCl2. The samples were then incubated at 37° C. under constant shaking at 600 rpm on a thermomixer for 45 minutes (min). The supernatants were collected in a new tube (sarkosyl-soluble fraction, S1). The pellet was resuspended in 1000 μL of myelin floatation buffer and centrifuged at 20,000 g for 60 min at 4° C. The supernatant was carefully removed to remove all the floating lipids. This step was repeated if all the lipids could not be removed in a single step. The pellet was subsequently washed with Phosphate-Buffered Saline (PBS) and centrifuged for 30 min at 20,000 g at 4° C. The final pellet was resuspended in 200 μL PBS and stored at −80° C. (sarkosyl-insoluble fraction). The samples were analyzed by immunoblotting in denaturing conditions.
Human FTD sarkosyl-insoluble brain extracts were spotted onto microarray slides. The slides were incubated with a tritiated reference ligand at 40 nM, and the example compounds (non-radiolabeled) at 2 μM and 250 nM. […] After incubation, slides were washed and scanned by a real-time autoradiography system (BeaQuant, ai4R). Quantification of the signal was performed by using the Beamage image analysis software (ai4R). Non-specific signal was determined with an excess of non-radiolabeled reference compound (2 μM) and specific binding was calculated by subtracting the non-specific signal from the total signal. Competition was calculated as percent, where 0% was defined as the specific binding in the presence of vehicle and 100% as the values obtained in the presence of excess of the non-radiolabeled reference compound. Ki values were calculated in GraphPad Prism8 by applying a nonlinear regression curve fit using a one site, specific binding model. Measurements were performed with at least two technical replicates in the two-concentration competition experiment and with one technical replicate in the experiments including a range of concentrations. For compounds tested in more than one experiment, the mean of the replicates or Ki values in independent experiments is reported.

[2] = molecular target: T2, Abeta (Homo sapiens, UniProt P05067); test: Radiobinding competition assay using Abeta reference compound on AD insoluble fraction of brain homogenates; assay type: binding; conditions: against [3H]Abeta reference compound
T2 construct: an AD donor with confirmed burden of Tau and Abeta aggregates; from tissue; host or cells: frontal cortex of a human AD donor, Triton/sucrose-insoluble fraction
Experimental: Approximately 4 g of frozen tissue block from frontal cortex brain region was used from an AD donor with confirmed burden of Tau and Abeta aggregates. The tissue was homogenized in three volumes (1:3 w/v) of high salt buffer (50 mM Tris-HCl pH 7.5, 750 mM NaCl, 5 mM EDTA) supplemented with protease inhibitors (Complete; Roche 11697498001) at 4° C. with a glass Dounce homogenizer. The homogenate was transferred into polycarbonate centrifuge bottles (16×76 mm; Beckman 355603) and centrifuged at 100,000×g (38,000 RPM) in an ultracentrifuge (Beckman, XL100K) for 60 minutes at 4° C. using a pre-cooled 70.1 rotor (Beckman, 342184). Pellets were resuspended in high salt buffer supplemented with 1% Triton X-100 and homogenized at 4° C. with a syringe. The homogenates were centrifuged again at 100,000×g (38,000 RPM, 70.1 rotor) for 60 minutes at 4° C. Pellets were resuspended in high salt buffer supplemented with 1% Triton X-100 and 1 M sucrose and homogenized at 4° C. with a syringe. The homogenates were centrifuged at 100,000×g (38,000 RPM, 70.1 rotor) for 60 minutes at 4° C. The resulting pellets containing insoluble fraction were resuspended in PBS (1:2 w/v relative to starting tissue weight), aliquoted and stored at −80° C. until use.
The reaction was performed in assay buffer (50 mM Tris pH 7.5 in 0.9% NaCl, 0.1% BSA) and incubated for two hours at room temperature (RT). Samples in duplicate were then filtered under vacuum in GF/C filter plates (PerkinElmer) to trap the aggregates with the bound radioligand and washed with 100 μL ice-cold 50 mM Tris pH 7.5. The GF/C filters were then dried and scintillation liquid (UltimateGold, PerkinElmer, 6013151) was added in each well. The filters were analyzed on a Microbeta2 scintillation counter (PerkinElmer). Values for the maximal signal were obtained in the absence of non-radiolabeled compound, while 100% displacement was obtained using 1 μM of non-radiolabeled reference compound. Ki values were calculated by nonlinear regression, using a one site—fit Ki model in Prism V7 (GraphPad).

[3] = molecular target: human FTD Type A sarkosyl-insoluble brain extracts (Homo sapiens, UniProt Q13148); test: Kd determination by micro-radiobinding assay on FTD Type A extracts; assay type: binding; conditions: tritiated compound 1.29 to 300 nM
Experimental: as §1, §2
Human FTD sarkosyl-insoluble brain extracts were spotted onto microarray slides. The slides were incubated with [^3H]-Compounds 1, 7, 8, 9, 15, 16 and 17 in a range of concentrations, varying from 1.29 to 300 nM. After incubation, slides were washed and scanned by a real-time autoradiography system (BeaQuant, ai4R). Quantification of the signal was performed by using the Beamage image analysis software (ai4R). Non-specific signal was determined with an excess of non-radiolabeled compound 1, 7, 8, 9, 15, 16 and 17 (1 μM), respectively, and specific binding was calculated by subtracting the non-specific signal from the total signal.
The Kd (Dissociation constant) and R^2 (parameter ranging between 0.0 and 1.0 that quantifies the goodness of fit, and the best curve fit obtained with value of 1.0) were obtained by fitting the specific binding data with non-linear regression analysis, using a one-site specific binding model in GraphPad Prism8.

[4] = cells printed in μM, read-out: Ki on AD brain homogenates

T2 sequence (P05067 672-713 limits assumed): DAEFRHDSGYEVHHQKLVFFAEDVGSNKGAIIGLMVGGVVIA
T1 sequence (Q13148 261-414 limits assumed): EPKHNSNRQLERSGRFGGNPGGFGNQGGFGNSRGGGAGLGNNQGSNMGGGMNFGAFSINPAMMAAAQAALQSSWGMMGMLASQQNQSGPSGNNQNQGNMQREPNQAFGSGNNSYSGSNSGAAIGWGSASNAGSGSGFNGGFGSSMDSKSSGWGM
Chain of human FTD Type A sarkosyl-insoluble brain extracts (Q13148 263-414 limits assumed): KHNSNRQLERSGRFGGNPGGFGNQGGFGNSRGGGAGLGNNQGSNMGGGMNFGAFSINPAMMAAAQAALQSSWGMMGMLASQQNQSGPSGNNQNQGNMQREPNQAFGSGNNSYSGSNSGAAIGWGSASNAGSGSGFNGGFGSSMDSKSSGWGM

O=C1c2sc(-c3ccc(N4CCC(CO)CC4)nc3F)nc2CCN1c1cccnc1 [Compound 17, 2-(2-fluoro-6-(4-(hydroxymethyl)piperidin-1-yl)pyridin-3-yl)-5-(pyridin-3-yl)-6,7-dihydrothiazolo[5,4-c]pyridin-4(5H)-one]
Ki [1]: 41 nM
Human brain derived TDP-43 aggregates Mean % competition at 250 nM [1]: 73%
Human brain derived TDP-43 aggregates Mean % competition at 2 μM [1]: 85%
Ki [2, 4]: > 1 µM

[3H]c1cncc(N2CCc3nc(-c4cc([3H])c(N5CC[C@@H](F)C5)nc4F)sc3C2=O)c1 [[^3H]-Compound 1, tritiated 2-[2-fluoro-6-[(3R)-3-fluoropyrrolidin-1-yl]-3-pyridyl]-5-(3-pyridyl)-6,7-dihydrothiazolo[5,4-c]pyridin-4-one]
Kd [3]: 69 ± 21 nM

[3H]C([3H])(O)C1CCN(c2ccc(-c3nc4c(s3)C(=O)N(c3cccnc3)CC4)c(F)n2)CC1 [[^3H]-Compound 17, 2-(2-fluoro-6-(4-(hydroxymethyl-t2)piperidin-1-yl)pyridin-3-yl)-5-(pyridin-3-yl)-6,7-dihydrothiazolo[5,4-c]pyridin-4(5H)-one]
Kd [3]: 25 ± 6 nM

O=C1c2sc(-c3ccc(N4CC[C@@H](F)C4)nc3F)nc2CCN1c1cccnc1 [Compound 1, 2-[2-fluoro-6-[(3R)-3-fluoropyrrolidin-1-yl]-3-pyridyl]-5-(3-pyridyl)-6,7-dihydrothiazolo[5,4-c]pyridin-4-one]
Ki [1]: 22 nM
Human brain derived TDP-43 aggregates Mean % competition at 250 nM [1]: 65%
Human brain derived TDP-43 aggregates Mean % competition at 2 μM [1]: 78%
Ki [2, 4]: > 1 µM
Ki ([2]; read-out: Ki (nM) on AD brain homogenates): > 1 µM
